The text below walks through data of ChEMBL document CHEMBL5608109, “Hepatotoxicity screening of Donated Chemical Probes” (2024).

Where a SMILES comes first, the peptide text is derived from it. [ ]: non-standard residue; d: D form. Arg(Me) = CNC(=N)NCCC[C@H](N)C(=O)O; d4Pal = N[C@H](Cc1ccncc1)C(=O)O; azaGly = NNC(=O)O

The assay has as its system Hepatocyte spheroids. Description: This assay model using primary human hepatocyte (PHH) spheroids, which are cultured in Williams E medium. After spheroid formation, cells are exposed to compounds in an FBS-free culture medium. […] Imaging is performed on an Opera Phenix High-Content Screening System, allowing quantification of proliferation as a readout for evaluating the effects of chemical probes on hepatocyte regeneration. The settings on record: read-out: Cell Viability; for viability at 0.1 µM: Concentration 0.1 uM; for viability at 1 µM: Concentration 1 uM; for viability at 10 µM: Concentration 10 uM. The assay is classed as functional.

`CS(=O)(=O)N1CCCC(NC(=O)[C@H](CCC2CCCCC2)NC(=O)c2ccc(CNC(=O)c3cnc4ccccn34)cc2)C1` (some centres not stated) [SR-302]: the viability – broadly, a read-out of living cells in per cent, often relative to untreated cells – at 0.1 µM is recorded as 134% (non-toxic) and the viability at 1 µM was 128% (non-toxic).
The matching figures for `COCCOc1nc(-c2ccc(Cl)nc2)nc2c1CN(C(=O)c1ncn3ccccc13)CC2` [THPP-1]: 118% (non-toxic) and 116% (non-toxic).
Take `CCOCCn1cc(C(=O)Nc2ccc(-n3nc(-c4cccnc4)cc3C(F)(F)F)cn2)ccc1=O` [BI 1935]: the viability at 1 µM is 100% (non-toxic) and the viability at 10 µM was 34.7% (toxic).
`Cc1c[nH]c2nccc(Oc3c(F)cc(Nc4cc(Cl)nc(N)n4)cc3F)c12` [BAY-549]: the viability at 0.1 µM is given as 79.9% (non-toxic) and the viability at 1 µM is recorded as 83.7% (non-toxic).
`CC(=O)Nc1c(F)cc(C(=O)N[C@H]2CC[C@H](O)CC2)cc1O[C@@H](C)c1ccccc1` [GSK046]: the viability at 1 µM is 96.7% (non-toxic) and the viability at 10 µM is on record as 85.2% (non-toxic).
For `CC[C@H](CC(=O)O)n1c(=O)c2ncccc2n(Cc2cn(C)c3cc(C)cc(C)c23)c1=O` [BI-1942], the viability at 1 µM is reported as 53.2% (toxic) and the viability at 10 µM is given as 65.2% (toxic).
For `O=C(NCc1ncc(C(F)(F)F)cc1Cl)c1ccc2c(c1)C1(CCS(=O)(=O)CC1)[C@H](C1CC1)N2S(=O)(=O)c1ccc(F)cc1` [BAY-784], the viability at 0.1 µM was 103% (non-toxic) and the viability at 1 µM is given as 107% (non-toxic).
On to `CS(=O)(=O)c1cc(C2(NC(=O)c3cncc4c3cnn4-c3ccc(F)cc3)CC2)ccn1` [BI 639667], for which the viability at 2 µM (Concentration 2 uM) was 60.2% (toxic). For the same molecule, under “Concentration 20 uM”, the viability at 20 µM was 59.6% (toxic).
Take `Cc1cnc(-c2cc(Cl)ccc2F)cc1-n1c(=O)n(CC(N)=O)c2cnccc21` [TP-008]: the viability at 1 µM is reported as 90% (non-toxic) and the viability at 10 µM is listed as 99.1% (non-toxic).
For `Nc1nc(NCc2ccccc2)nc(-c2ccccc2CO)n1` [Ogerin] the same measures were 94.3% (non-toxic) and 115% (non-toxic).
For `CC1=C(C#N)C(c2ccc3[nH]nc(C)c3c2)C(C#N)=C(C)N1` [BAY-474], the viability at 1 µM is recorded as 99.5% (non-toxic) and the viability at 10 µM is on record as 111% (non-toxic).
In the case of `CC1CCN(c2ccnc(NCc3cn(C)cn3)n2)CC1` [TP-040], the viability at 1 µM is 127% (non-toxic) and the viability at 10 µM is 133% (non-toxic).
For `CNCc1ccccc1-c1csc([C@@H](C)Nc2nc(C)nc3cc(OC)c(OC)cc23)c1` [BAY-293] the same measures were 120% (non-toxic) and 0.873% (toxic).
The matching figures for `CCC(F)(F)c1cc(N2CCC(S(C)(=O)=O)CC2)nc2sc(C(N)=O)c(N)c12` [BI-605906]: 103% (non-toxic) and 134% (non-toxic).
The matching figures for `COCc1nc2cnc3cc(-c4c(C)noc4C)c(OC[C@H]4CCNC4)cc3c2n1[C@H](C)c1ccccc1` [GSK778]: 118% (non-toxic) and 64% (toxic).
Consider `CNC(=N)NCCC[C@H](NC(=O)[C@H](CC(C)C)NC(=O)NNC(=O)[C@H](Cc1ccccc1)NC(=O)[C@H](CO)NC(=O)[C@H](CC(N)=O)NC(=O)[C@@H](Cc1ccncc1)NC(=O)[C@H](N)Cc1ccc(O)cc1)C(=O)N[C@@H](Cc1ccccc1)C(N)=O` [KISS1-305] (H-[dY][d4Pal]NSF[azaGly]L[Arg(Me)]F-NH2), for which the viability at 0.1 µM is recorded as 107% (non-toxic) and the viability at 1 µM is recorded as 98.4% (non-toxic).
The matching figures for `CCOC(=O)c1cc2cc(-c3cc(C(=O)NCc4ccc(C(=O)O)cc4)nn3C)ccc2[nH]1` [BI 4394]: 108% (non-toxic) and 106% (non-toxic).
On to `CCC(=O)N[C@H]1CC[C@@H](C(=O)N(C)c2ccc(-c3nc4ccccc4o3)cc2)C1` [BI 99179], for which the viability at 1 µM is 81.6% (non-toxic) and the viability at 10 µM is recorded as 55.6% (toxic).
The matching figures for `C[C@@H](NC(=O)Nc1cc2[nH]ncc2c(CO)n1)c1ccccc1` [ERKi]: 75% (non-toxic) and 75.2% (non-toxic).
The matching figures for `Cn1c(C2(NC(=O)c3ccc4c(C5CCCC5)c(-c5ncc(Br)cn5)n(C)c4c3)CCC2)nc2ccc(/C=C/C(=O)O)cc21` [DELEOBUVIR]: 135% (non-toxic) and 157% (non-toxic).
For `N#CC1(c2ccccn2)CCN(Cc2cc(C(=O)O)c(=O)n3ccccc23)CC1` [MSD-M1PAM] the same measures were 112% (non-toxic) and 87.1% (non-toxic).
As for `CCNC(=O)c1cc2c(N3CCOCC3C)ccnc2[nH]1` (configuration not stated), the viability at 1 µM is 90.1% (non-toxic) and the viability at 10 µM is reported as 74.9% (non-toxic).
For `COCCc1ccc(-c2c(C)nc3c(N4CCOCC4)ccnn23)cn1` [JNJ-42396302] the same measures were 158% (non-toxic) and 160% (non-toxic).
For `CN(C)CC#Cc1ccc(OCCCc2sc(N3CCc4cccc(C(=O)Nc5nc6ccccc6s5)c4C3)nc2C(=O)O)c(F)c1` [A-1155463] the same measures were 120% (non-toxic) and 117% (non-toxic).
For `Cc1nc(N2CC[C@H](O)C2)ncc1-c1cc(C(F)(F)F)cc2[nH]ncc12` the same measures were 116% (non-toxic) and 107% (non-toxic).
As for `C[C@@H](c1cccc(CN)c1)n1cc(Cl)cc(C(N)=O)c1=N`, the viability at 1 µM was 104% (non-toxic) and the viability at 10 µM is recorded as 111% (non-toxic).
For the molecule `Cc1cc(C)c(-n2ccn3nc(-c4cccnc4)cc23)cc1NC(=O)c1cc(C#N)cc(S(F)(F)(F)(F)F)c1` [BAY-826], the viability at 0.1 µM is given as 149% (non-toxic) and the viability at 1 µM is on record as 144% (non-toxic).
As to `NS(=O)(=O)c1cc(NC(=O)Cc2ccccc2)ccc1Oc1cccc(Cl)c1` [BAY-1797], the viability at 1 µM was 111% (non-toxic) and the viability at 10 µM was 19.3% (toxic).
In the case of `C[C@H](c1ccc(F)cc1)N(Cc1cccc(C(=O)O)c1)C(=O)c1cnc2ccccc2c1` [PF-05105679], the viability at 1 µM is 126% (non-toxic) and the viability at 10 µM is given as 120% (non-toxic).
In the case of `O[C@]1(C(F)(F)F)CCCC[C@H]1Nc1ccc(F)cc1` [BAY-390], the viability at 0.1 µM was 99.2% (non-toxic) and the viability at 1 µM is on record as 96.9% (non-toxic).
`Cc1cc(-n2nc(Cc3cc(F)cc(C(F)(F)F)c3)nc2C)ccc1C(N)=O` [TP-024]: the viability at 1 µM is 111% (non-toxic) and the viability at 10 µM is recorded as 92% (non-toxic).
The matching figures for `Cc1cc2c(-c3ccco3)cnc(N[C@@H]3CCN(C)C[C@H]3C(=O)NC3CCCCC3)c2[nH]c1=O` [GSK789]: 52.2% (toxic) and 27.6% (toxic).
For the molecule `Nc1c(C(=O)NCc2ccc(C(=O)NCCCC3CCCCC3)cc2)cnn1-c1ccccc1` [SR-318], the viability at 0.1 µM was 81.4% (non-toxic) and the viability at 1 µM is given as 89.8% (non-toxic).
As for `O=C(NC[C@@H]1[C@H]2CN(C(=O)OCc3cc(C(F)(F)F)cc(C(F)(F)F)c3)C[C@@H]12)c1ccc2[nH]nnc2c1` [BI 2545], the viability at 1 µM was 119% (non-toxic) and the viability at 10 µM was 76.5% (non-toxic).
For `Cc1c(NC(=O)COc2ccc(Cl)cc2C(=O)c2cc(F)cc(C(F)(F)F)c2)ccc(C(=O)O)c1F` [BI 2540] the same measures were 95.6% (non-toxic) and 93.1% (non-toxic).
Consider `CC(=O)N1CCC(c2ccc(C(=O)NC(=N)N)cc2C(F)(F)F)CC1` [BI 9627], for which the viability at 1 µM was 78.4% (non-toxic) and the viability at 10 µM is on record as 106% (non-toxic).
Take `O=C(NNS(=O)(=O)c1ccccc1F)c1cc(F)cc(-c2ccccn2)c1` [WM-1119]: the viability at 1 µM is recorded as 107% (non-toxic) and the viability at 10 µM is 75.2% (non-toxic).
The matching figures for `C=CC(=O)Nc1ccc2[nH]c(=O)n(C3CCN(Cc4ccc(-c5nc6cc[nH]c(=O)c6cc5-c5ccccc5)cc4)CC3)c2c1` [Borussertib]: 48.8% (toxic) and 16% (toxic).
For `O=C1CCc2cc(Nc3cc(OC4CCOCC4)c([N+](=O)[O-])cc3Cl)ccc2N1`, the viability at 1 µM is reported as 147% (non-toxic) and the viability at 10 µM is reported as 76% (non-toxic).
For `CN([C@@H]1CCc2c(CC(=O)O)c3ccccc3n2C1)S(=O)(=O)c1ccc(F)cc1` [MK-7246] the same measures were 107% (non-toxic) and 111% (non-toxic).
With `COc1ccc2cc(OCC3(C(=O)O)CN(C(=O)c4ccc(F)cc4)C3)ccc2c1` [PF-04418948], the viability at 0.1 µM was 157% (non-toxic) and the viability at 1 µM is listed as 153% (toxic).
Regarding `O=c1nc(-c2ccccn2)sc2ccccc12` [BTZO-1], the viability at 1 µM is on record as 99.7% (non-toxic) and the viability at 10 µM was 73.5% (non-toxic).
Regarding `O=S(=O)(NC1CCC(c2cc(F)ccc2F)(S(=O)(=O)c2ccc(Cl)cc2)CC1)C(F)(F)F` (configuration not stated) [MRK-560], the viability at 0.1 µM is given as 101% (non-toxic) and the viability at 1 µM is reported as 76.1% (non-toxic).
For the molecule `Cc1ccc2nc(CNCCCOc3ccccc3)cc(O)c2c1` [UCSF924], the viability at 1 µM is 164% (non-toxic) and the viability at 10 µM was 147% (non-toxic).
The matching figures for `Clc1cccc(-c2nnnn2Cc2cccnc2)c1Cl`: 97.1% (non-toxic) and 98.7% (non-toxic).
For the molecule `CC(=O)C1=C(C)N(c2cccc(C(F)(F)F)c2)C(=O)N[C@@H]1c1ccc(C#N)nc1` [BAY-678], the viability at 1 µM is recorded as 139% (non-toxic) and the viability at 10 µM is recorded as 132% (non-toxic).
